Measurements: ChEMBL document CHEMBL5344403, “Discovery and evaluation of phenacrylanilide derivatives as novel potential anti-liver fibrosis agents” (Eur J Med Chem, 2022)
Activity calls are given as the source filed them. No cut-off for these calls is given here.

Experiments:
LX-2 [1] = test: Inhibition of TGF-beta1-induced human LX2 activation at 20 uM pretreated with TGF-beta1 for 1 hr followed by compound addition and measured after 72 hrs by CCK-8 assay relative to control; type: functional
[2] = Antiproliferative activity against human LX2 cells assessed as cell survival rate at 20 uM incubated for 72 hrs by CCK-8 assay; type: toxicity, cell-based; conditions: LX-2 cells, read-out: Activity
LX-2 [3] = test: Antifibrotic activity against TGF-beta1 induced human LX2 cells assessed as reduction of alpha-SMA expression at 20 uM pretreated with TGF-beta1 for 1 hr followed by compound addition and measured after 24 hrs by Western blot analysis; type: functional, cell-based
LX-2 [4] = test: Antifibrotic activity against TGF-beta1 induced human LX2 cells assessed as reduction of fibronectin expression at 20 uM pretreated with TGF-beta1 for 1 hr followed by compound addition and measured after 24 hrs by Western blot analysis; type: functional, cell-based
[5] = Antiproliferative activity against human LO2 cells assessed as inhibition of cell growth incubated for 72 hrs by CCK-8 assay; type: toxicity, cell-based; conditions: LO2 (L02) cells
Mus musculus [6] = test: Anti-hepatic fibrosis activity in CCL4-induced C57BL/6J mouse hepatic fibrosis model assessed as reduction in liver injury at 15 to 30 mg/kg, po measured for 3 weeks; type: functional, organism-based; conditions: dose 15-30 mg/kg
Mus musculus [7] = test: Anti-hepatic fibrosis activity in CCL4-induced C57BL/6J mouse hepatic fibrosis model assessed as reduction in liver weight coefficient at 15 to 30 mg/kg, po measured for 3 weeks; type: functional, organism-based; conditions: dose 15-30 mg/kg
Mus musculus [8] = test: Anti-hepatic fibrosis activity in CCL4-induced C57BL/6J mouse hepatic fibrosis model assessed as decrease in serum ALT level at 15 to 30 mg/kg, po measured for 3 weeks; type: functional, organism-based; conditions: dose 15-30 mg/kg
Mus musculus [9] = test: Anti-hepatic fibrosis activity in CCL4-induced C57BL/6J mouse hepatic fibrosis model assessed as decrease in serum AST level at 15 to 30 mg/kg, po measured for 3 weeks; type: functional, organism-based; conditions: dose 15-30 mg/kg
Mus musculus [10] = test: Anti-hepatic fibrosis activity in CCL4-induced C57BL/6J mouse hepatic fibrosis model assessed as decrease in serum CHO level at 15 to 30 mg/kg, po measured for 3 weeks; type: functional, organism-based; conditions: dose 15-30 mg/kg
Mus musculus [11] = test: Anti-hepatic fibrosis activity in CCL4-induced C57BL/6J mouse hepatic fibrosis model assessed as decrease in serum TG level at 15 to 30 mg/kg, po measured for 3 weeks; type: functional, organism-based; conditions: dose 15-30 mg/kg
Mus musculus [12] = test: Anti-hepatic fibrosis activity in CCL4-induced C57BL/6J mouse hepatic fibrosis model assessed as improvement in liver structural damage at 15 to 30 mg/kg, po measured for 3 weeks by H and E staining based analysis; type: functional, organism-based; conditions: dose 15-30 mg/kg
Mus musculus [13] = test: Anti-hepatic fibrosis activity in CCL4-induced C57BL/6J mouse hepatic fibrosis model assessed as improvement in inflammatory cell infiltration at 15 to 30 mg/kg, po measured for 3 weeks by H and E staining based analysis; type: functional, organism-based; conditions: dose 15-30 mg/kg
Mus musculus [14] = test: Anti-hepatic fibrosis activity in CCL4-induced C57BL/6J mouse hepatic fibrosis model assessed as decrease in collagen deposition in liver at 15 to 30 mg/kg, po measured for 3 weeks by Masson's trichome staining based analysis; type: functional, organism-based; conditions: dose 15-30 mg/kg
Mus musculus [15] = test: Anti-hepatic fibrosis activity in CCL4-induced C57BL/6J mouse hepatic fibrosis model assessed as decrease in collagen deposition in liver at 15 to 30 mg/kg, po measured for 3 weeks by sirius red staining based analysis; type: functional, organism-based; conditions: dose 15-30 mg/kg
Mus musculus [16] = test: Anti-hepatic fibrosis activity in CCL4-induced C57BL/6J mouse hepatic fibrosis model assessed as downregulation of collagen mRNA expression at 30 mg/kg, po measured for 3 weeks by qRT-PCR analysis; type: functional, organism-based
Mus musculus [17] = test: Anti-hepatic fibrosis activity in CCL4-induced C57BL/6J mouse hepatic fibrosis model assessed as downregulation of alpha-SMA mRNA expression at 30 mg/kg, po measured for 3 weeks by qRT-PCR analysis; type: functional, organism-based
Mus musculus [18] = test: Anti-hepatic fibrosis activity in CCL4-induced C57BL/6J mouse hepatic fibrosis model assessed as downregulation of TGF-beta1 mRNA expression at 30 mg/kg, po measured for 3 weeks by qRT-PCR analysis; type: functional, organism-based
Mus musculus [19] = test: Anti-hepatic fibrosis activity in CCL4-induced C57BL/6J mouse hepatic fibrosis model assessed as downregulation of alpha-SMA level at 30 mg/kg, po measured for 3 weeks by Western blot analysis; type: functional, organism-based
Mus musculus [20] = test: Anti-hepatic fibrosis activity in CCL4-induced C57BL/6J mouse hepatic fibrosis model assessed as downregulation of collagen level at 30 mg/kg, po measured for 3 weeks by Western blot analysis; type: functional, organism-based
Mus musculus [21] = test: Anti-hepatic fibrosis activity in CCL4-induced C57BL/6J mouse hepatic fibrosis model assessed as downregulation of collagen level in liver at 30 mg/kg, po measured for 3 weeks by immunohistochemical analysis; type: functional, organism-based
Mus musculus [22] = test: Anti-hepatic fibrosis activity in CCL4-induced C57BL/6J mouse hepatic fibrosis model assessed as downregulation of alpha-SMA level in liver at 30 mg/kg, po measured for 3 weeks by immunohistochemical analysis; type: functional, organism-based
Mus musculus [23] = test: Inhibition of epithelial mesenchymal transition in CCL4-induced C57BL/6J mouse hepatic fibrosis model assessed as […] in N-cadherin protein expression at 15 to 30 mg/kg, po measured for 3 weeks; type: functional, organism-based; conditions: dose 15-30 mg/kg
Mus musculus [24] = test: Inhibition of epithelial mesenchymal transition in CCL4-induced C57BL/6J mouse hepatic fibrosis model assessed as decrease in vimentin protein expression at 15 to 30 mg/kg, po measured for 3 weeks; type: functional, organism-based; conditions: dose 15-30 mg/kg
Mus musculus [25] = test: Antifibrotic activity against CCL4-induced C57BL/6J mouse hepatic fibrosis model assessed as reduction in F4/80+CD11b+ in macrophage at 15 mg/kg, po measured for 3 weeks by flow cytometry analysis relative to control; type: functional; parameters: scale not given: the % may be the effect or the level left
Mus musculus [26] = test: Antifibrotic activity against CCL4-induced C57BL/6J mouse hepatic fibrosis model assessed as reduction in F4/80+CD11b+ in macrophage at 30 mg/kg, po measured for 3 weeks by flow cytometry analysis relative to control; type: functional; parameters: scale not given: the % may be the effect or the level left
Mus musculus [27] = test: Antifibrotic activity against CCL4-induced C57BL/6J mouse hepatic fibrosis model assessed as reduction in CD69/CD4 in Th1 cell cells at 15 mg/kg, po measured for 3 weeks by flow cytometry analysis relative to control; type: functional; parameters: scale not given: the % may be the effect or the level left
Mus musculus [28] = test: Antifibrotic activity against CCL4-induced C57BL/6J mouse hepatic fibrosis model assessed as reduction in CD69/CD4 in Th1 cell cells at 30 mg/kg, po measured for 3 weeks by flow cytometry analysis relative to control; type: functional; parameters: scale not given: the % may be the effect or the level left
Mus musculus [29] = test: Antifibrotic activity against CCL4-induced C57BL/6J mouse hepatic fibrosis model assessed as reduction in CD69/CD8 in […] cell cells at 15 mg/kg, po measured for 3 weeks by flow cytometry analysis relative to control; type: functional; parameters: scale not given: the % may be the effect or the level left
Mus musculus [30] = test: Antifibrotic activity against CCL4-induced C57BL/6J mouse hepatic fibrosis model assessed as reduction in CD69/CD8 in […] cell cells at 30 mg/kg, po measured for 3 weeks by flow cytometry analysis relative to control; type: functional; parameters: scale not given: the % may be the effect or the level left
Mus musculus [31] = test: Antifibrotic activity against CCL4-induced C57BL/6J mouse hepatic fibrosis model assessed as reduction in CD11b/Gr-1 in MDSC cells at 15 mg/kg, po measured for 3 weeks by flow cytometry analysis relative to control; type: functional; parameters: scale not given: the % may be the effect or the level left
Mus musculus [32] = test: Antifibrotic activity against CCL4-induced C57BL/6J mouse hepatic fibrosis model assessed as reduction in CD11b/Gr-1 in MDSC cells at 30 mg/kg, po measured for 3 weeks by flow cytometry analysis relative to control; type: functional; parameters: scale not given: the % may be the effect or the level left
[33] = Toxicity in CCL4-induced C57BL/6J mouse assessed as effect on body weight at 15 to 30 mg/kg, po; type: organism-based; conditions: in vivo, dose 15-30 mg/kg
[34] = Toxicity in CCL4-induced C57BL/6J mouse assessed as effect on creatinine level at 15 to 30 mg/kg, po; type: organism-based; conditions: in vivo, dose 15-30 mg/kg
[35] = Toxicity in CCL4-induced C57BL/6J mouse assessed as effect on uric acid level at 15 to 30 mg/kg, po; type: organism-based; conditions: in vivo, dose 15-30 mg/kg
[36] = Toxicity in CCL4-induced C57BL/6J mouse assessed as effect on urea level at 15 to 30 mg/kg, po; type: organism-based; conditions: in vivo, dose 15-30 mg/kg
[37] = Toxicity in CCL4-induced po dosed C57BL/6J mouse assessed as decrease in spleen weight coefficient; type: organism-based; conditions: in vivo, dose 15-30 mg/kg
[38] = Toxicity in CCL4-induced po dosed C57BL/6J mouse assessed as inflammatory cell infiltration in heart at 15 to 30 mg/kg, po by H and E staining based analysis; type: organism-based; conditions: in vivo, dose 15-30 mg/kg
[39] = Toxicity in CCL4-induced po dosed C57BL/6J mouse assessed as inflammatory cell infiltration in spleen at 15 to 30 mg/kg, po by H and E staining based analysis; type: organism-based; conditions: in vivo, dose 15-30 mg/kg
[40] = Toxicity in CCL4-induced po dosed C57BL/6J mouse assessed as inflammatory cell infiltration in lung at 15 to 30 mg/kg, po by H and E staining based analysis; type: organism-based; conditions: in vivo, dose 15-30 mg/kg

COc1ccc(/C=C/C(=O)Nc2cccc(C(=O)NC3CCCC3)c2)cc1
inhibition at 20 µM (LX-2 [1]): 30.3%
viability at 72 h, 20 µM [2]: 77.5%
Activity (LX-2 [3]): Active
Activity (LX-2 [4]): Active
IC50 at 72 h [5]: 105 µM
Activity (Mus musculus [6]): Active
Activity (Mus musculus [7]): Active
Activity (Mus musculus [8]): Active
Activity (Mus musculus [9]): Active
Activity (Mus musculus [10]): Active
Activity (Mus musculus [11]): Active
Activity (Mus musculus [12]): Active
Activity (Mus musculus [13]): Active
Activity (Mus musculus [14]): Active
Activity (Mus musculus [15]): Active
Activity (Mus musculus [16]): Active
Activity (Mus musculus [17]): Active
Activity (Mus musculus [18]): Active
Activity (Mus musculus [19]): Active
Activity (Mus musculus [20]): Active
Activity (Mus musculus [21]): Active
Activity (Mus musculus [22]): Active
inhibition (Mus musculus [23]): Active
Activity (Mus musculus [24]): Active
Activity (Mus musculus [25]): 5.11%
Activity (Mus musculus [26]): 4.8%
Activity (Mus musculus [27]): 1.21%
Activity (Mus musculus [28]): 1.19%
Activity (Mus musculus [29]): 1.54%
Activity (Mus musculus [30]): 1.45%
Activity (Mus musculus [31]): 1.9%
Activity (Mus musculus [32]): 1.86%
Activity [33]: Non-Toxic
Activity [34]: Non-Toxic
Activity [35]: Non-Toxic
Activity [36]: Non-Toxic
Activity [37]: Dose-Dependent Effect
Activity [38]: Non-Toxic
Activity [39]: Non-Toxic
Activity [40]: Non-Toxic
